Article PMC6838674, “Apelin-36-[L28A] and Apelin-36-[L28C(30kDa-PEG)] peptides that improve diet induced obesity are G protein biased ligands at the apelin receptor” (Peptides, 2019)
Ends that are not written are not given here.

Assays:
[1] = tested on: apelin receptor; set-up: method as in earlier work; settings: ref 20 (Galon-Tilleman et al.), cited from earlier work
[2] = target: T1, apelin receptor (Homo sapiens, UniProt P35414); test: Inhibition of forskolin-induced cAMP accumulation assay (DiscoverX); assay type: cell-based; set-up: host or cells: CHO-K1; settings: for cAMP Assay Fold change: fold change in potency relative to apelin-36; for cAMP Assay RE (relative effectiveness) / cAMP Assay ΔlogR: operational model, compared to apelin-36
T1 sequence (P35414 1-380): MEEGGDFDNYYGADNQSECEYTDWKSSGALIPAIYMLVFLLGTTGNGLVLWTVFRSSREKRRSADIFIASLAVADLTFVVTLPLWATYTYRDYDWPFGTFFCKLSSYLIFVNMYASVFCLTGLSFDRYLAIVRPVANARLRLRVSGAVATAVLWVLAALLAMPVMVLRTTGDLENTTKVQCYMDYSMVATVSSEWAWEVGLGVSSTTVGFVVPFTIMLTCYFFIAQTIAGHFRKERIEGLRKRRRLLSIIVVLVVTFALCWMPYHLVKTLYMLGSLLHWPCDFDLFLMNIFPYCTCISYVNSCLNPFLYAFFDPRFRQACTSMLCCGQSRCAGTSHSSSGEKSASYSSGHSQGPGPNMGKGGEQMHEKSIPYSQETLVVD
Protocol: Cell-based cAMP assay were performed as previously described. Briefly, Chinese Hamster Ovary cells (CHO-K1) cells artificially expressing the human apelin receptor were seeded in Cell Plating media into 96-well plates and incubated for 24 h at 37 °C in 5% CO2. […] Cells were subsequently incubated with cAMP Detection Reagent comprising cAMP Lysis Buffer, Substrate Reagent 1, Substrate Reagent 2 and cAMP Solution D for 1 h at room temperature followed by 3 h incubation with cAMP Reagent A at room temperature and chemiluminescence reading (LumiLITE™ Microplate Reader, DiscoverX). Responses were fitted to a 4-parameter logistic equation in GraphPad Prism 7 (La Jolla, CA, USA) and values of potency, pD2 (-log10 EC50, where EC50 is the concentration producing half maximal response) determined. Data were expressed as percentage inhibition of forskolin-stimulated cAMP production.
(§1) Data were expressed as mean ± SEM. Experiments were performed in triplicates or duplicates and n-values were expressed as number of independent experiments. Potencies of analogues in cell-based assays were compared to native apelin-36 using a one-way ANOVA with Dunnett’s posthoc test in GraphPad Prism 7. A P value < 0.05 was considered statistically significant. Binding affinities in both species were compared using Student’s t-test in Graphpad Prism as described above. Bias calculations were performed as previously described using the operational model for bias, to obtain values for relative effectiveness of the apelin-36 synthetic analogues compared to apelin-36 within each cell-based assay. Bias factors were calculated to compare the relative activities of the analogues between the different pathways – β-arrestin (G protein independent) and cAMP (G protein dependent).

[3] = target: T1, apelin receptor; test: β-Arrestin recruitment assay (DiscoverX AGTRL1); assay type: cell-based; set-up: host or cells: CHO-K1; settings: for β-Arrestin Assay Fold change: fold change in potency relative to apelin-36; for β-Arrestin Assay RE (relative effectiveness) / β-Arrestin Assay ΔlogR: operational model, compared to apelin-36; for β-Arrestin Assay ΔlogR / β-Arrestin Assay pD2±SEM / EC50: n = 3-4 independent experiments; for β-Arrestin Assay pD2±SEM / EC50: CHO-K1 cells expressing human apelin receptor, 90 min, 37 °C, mean ± SEM, SEM; for EC50: read-out: β-Arrestin Assay pD2±SEM (converted)
Protocol: Experiments were performed using a β-arrestin GPCR Assay (AGTRL1) (DiscoverX, Lot No.: 16L0902) according to methods previously described. CHO-K1 cells artificially expressing the human apelin receptor were seeded in Cell Plating media into 96-well plates and incubated for 48 h at 37 °C in 5% CO2. […] Negative controls were defined with equal volumes of drug solvent (water). The resulting chemiluminescent signal was measured using a LumiLITE™ Microplate Reader (DiscoverX, Fremont, CA). Responses, measured in relative light units, were fitted with a 4-parameter logistic equation in GraphPad Prism 7 (La Jolla, CA, USA) and values of pD2 and maximum response (EMax) were calculated for each compound.
as §1

[4] = target: T1, apelin receptor; test: Bias analysis, cAMP vs β-arrestin (operational model for bias); assay type: cell-based; set-up: host or cells: CHO-K1; settings: for cAMP vs β-arrestin Assay Bias factor: G protein (cAMP) over β-arrestin; for cAMP vs β-arrestin Assay Bias factor / cAMP vs β-arrestin Assay ΔΔlogR ± SEM: reference ligand apelin-36; for cAMP vs β-arrestin Assay ΔΔlogR ± SEM: difference between ΔlogR in cAMP and β-arrestin pathways
Protocol: as §1, with “A P value < 0.05 was considered statistically significant.” left out, “Bias calculations were performed as previously described using the operational model for bias, to obtain values for relative effectiveness of the apelin-36 synthetic analogues compared to apelin-36 within each cell-based assay.” left out

[5] = target: T2, apelin receptor (Rattus norvegicus, UniProt Q9JHG3); test: Radioligand competition binding, rat heart homogenate; settings: [125I]apelin-13 0.1 nM, 90 min, competitor 50 pM-100 μM, mean ± SEM, n = 3 replicates per concentration
T2 construct: experiments using native rat and human receptor; from tissue; host or cells: pooled hearts of Sprague Dawley rats
T2 sequence (Q9JHG3 1-377): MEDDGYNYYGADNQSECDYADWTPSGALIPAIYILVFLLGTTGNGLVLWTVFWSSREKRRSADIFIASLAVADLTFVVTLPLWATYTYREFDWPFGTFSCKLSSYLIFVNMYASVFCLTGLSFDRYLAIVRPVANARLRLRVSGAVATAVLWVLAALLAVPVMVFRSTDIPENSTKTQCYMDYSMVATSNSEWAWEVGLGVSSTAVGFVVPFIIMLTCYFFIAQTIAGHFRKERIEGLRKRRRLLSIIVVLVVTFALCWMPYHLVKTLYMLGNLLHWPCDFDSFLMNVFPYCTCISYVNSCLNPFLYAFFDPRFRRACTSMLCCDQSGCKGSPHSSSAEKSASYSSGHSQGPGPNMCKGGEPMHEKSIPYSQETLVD
Description: Samples of human left ventricle were obtained with informed consent and ethical approval (05/Q104/142) via the Papworth Hospital Research Tissue Bank (08/H0304/56) from the explanted hearts of five dilated cardiomyopathy patients (4 males and 1 female, aged 38–55 years) undergoing transplantation. Studies conformed to the principles outlined in the declaration of Helsinki. All animal research was regulated under the Animals (Scientific Procedures) Act 1986 Amendment Regulations 2012 following ethical review by the University of Cambridge Animal Welfare and Ethical Review Body (AWERB). Adult female and male Sprague Dawley rats (n = 14; aged 7–10 weeks) were sacrificed using overdose of CO2 and cervical dislocation before heart tissue was removed and frozen on dry ice. […] Final pellets were then resuspended in 10 ml HEPES buffer (50 mM HEPES, pH 7.4) and protein concentration determined. […]
Competition binding experiments were performed using pooled human homogenised left ventricle (HLV, 1.5 mg/ml) and pooled rat heart homogenates (1.5 mg/ml) as previously described. […] The samples were then re-centrifuged to collect protein pellets before bound radioactivity in these pellets were counted using Packard Cobra II Auto Gamma Counter (Packard). Data were analysed with Graphpad Prism 7 (Graphpad Software, Inc. La Jolla, CA), using the One-site Fit Ki equation.

[6] = target: T1, apelin receptor; test: Radioligand competition binding, human left ventricle homogenate; set-up: experiments using native rat and human receptor; from tissue; host or cells: human left ventricle from explanted hearts of dilated cardiomyopathy patients; settings: [125I]apelin-13 0.1 nM, 90 min, competitor 50 pM-100 μM, mean ± SEM, n = 3 replicates per concentration; for Ki: human heart homogenate 1.5 mg/ml
Description: Samples of human left ventricle were obtained with informed consent and ethical approval (05/Q104/142) via the Papworth Hospital Research Tissue Bank (08/H0304/56) from the explanted hearts of five dilated cardiomyopathy patients (4 males and 1 female, aged 38–55 years) undergoing transplantation. Studies conformed to the principles outlined in the declaration of Helsinki. All animal research was regulated under the Animals (Scientific Procedures) Act 1986 Amendment Regulations 2012 following ethical review by the University of Cambridge Animal Welfare and Ethical Review Body (AWERB). Adult female and male Sprague Dawley rats (n = 14; aged 7–10 weeks) were sacrificed using overdose of CO2 and cervical dislocation before heart tissue was removed and frozen on dry ice. Hearts were pooled and 2 g tissue transferred into a centrifuge tube (50 ml) containing 20 ml homogenisation buffer (50 mM Tris, 5 mM MgCl2, 5 mM EDTA, 1 mM EGTA at pH 7.4 with protease inhibitor cocktail) on ice. The tissue was homogenised on ice using a polytron probe with 2–3 × 20 s bursts and centrifuged at 3000 rpm for 2 min at 4 °C. The supernatant was further centrifuged at 18,500 rpm for 30 min at 4 °C. The resulting pellet was resuspended in 5 ml homogenisation buffer containing protease inhibitor cocktail and centrifuged at 18,500 rpm for 30 min at 4 °C twice. Final pellets were then resuspended in 10 ml HEPES buffer (50 mM HEPES, pH 7.4) and protein concentration determined. Samples were stored at −70 °C until required.
Competition binding experiments were performed using pooled human homogenised left ventricle (HLV, 1.5 mg/ml) and pooled rat heart homogenates (1.5 mg/ml) as previously described. […] (50 pM-100 μM). […] The samples were then re-centrifuged to collect protein pellets before bound radioactivity in these pellets were counted using Packard Cobra II Auto Gamma Counter (Packard). Data were analysed with Graphpad Prism 7 (Graphpad Software, Inc. La Jolla, CA), using the One-site Fit Ki equation.

[7] = n = 3-4 independent experiments
[8] = CHO-K1 cells expressing human apelin receptor, 15 μM forskolin, 30 min, 37 °C, n = 3-4 independent experiments, read-out: cAMP Assay EC50
[9] = CHO-K1 cells expressing human apelin receptor, 15 μM forskolin, 30 min, 37 °C, mean ± SEM, n = 3-4 independent experiments, SEM, read-out: cAMP Assay pD2±SEM (converted)

## Apelin-13 [reference compound]
[1]; comment in Table 1
  agonist character at apelin receptor (comment): QRPRLSHKGPMPF (full agonist)

## Apelin-36-[L28C(30kDa-PEG)]: apelin-36 with leucine-28 to cysteine substitution, cysteine-28 PEGylated (30kDa)
[1]; β-arrestin activation
  fold less potent / less active at apelin receptor compared to apelin-36: 10,000 fold
[2]
  cAMP Assay Fold change: 104 fold
  cAMP Assay RE (relative effectiveness): 0.01
[2]; [7]
  cAMP Assay ΔlogR: −1.95 ± 0.31
[3]; listed as Apelin-36-[L28C (30kDa-PEG)]
  β-Arrestin Assay Fold change: 1324 fold
[3]; listed as apelin-36-[L28C(30kDa-PEG)]
  β-Arrestin Assay Fold change: 1400 fold
[3]
  β-Arrestin Assay RE (relative effectiveness): 0.0002
  β-Arrestin Assay ΔlogR: −3.71 ± 0.12
[4]; CHO-K1 cells expressing human apelin receptor
  fold more potent in the cAMP assay compared to the β-arrestin assay: ~10 fold
[4]
  cAMP vs β-arrestin Assay Bias factor: 58
  cAMP vs β-arrestin Assay ΔΔlogR ± SEM: 1.76 ± 0.33

## Apelin-36-[L28C(30kDa-PEG)]: apelin-36 with leucine-28 to cysteine substitution, cysteine-28 PEGylated (30kDa) (LVQPRGSRNGPGPWQGGRRKFRRQRPRCSHKGPMPF)
[5]
  pKi: 8.06 ± 0.37
[2]; [8]
  EC50: 95.3 nM
[3]
  β-Arrestin Assay pD2±SEM: 6.05 ± 0.06
[6]; human heart homogenate […]
  pKi: 8.00 ± 0.05

## LVQPRGSRNGPGAWQGGRRKFRRQRPRASHKGPMPF [Apelin-36-[A13 A28]]
[2]; [9]
  EC50: 7.59 nM
[3]
  EC50: 151 nM

## LVQPRGSRNGPGPWQGGRRKFRRQRPRASHKGPMPF [Apelin-36-[L28A]]
[2]; [8]
  EC50: 13.1 nM
[3]
  EC50: 37.2 nM
[6]
  Ki: 3.02 nM

## LVQPRGSRNGPGPWQGGRRKFRRQRPRLSHKGPMPA [Apelin-36-[F36A]]
[2]; [9]
  EC50: 1.26 nM
[3]
  EC50: 8.13 nM

## LVQPRGSRNGPGPWQGGRRKFRRQRPRLSHKGPMPF [Apelin-36]
[5]
  Ki: 0.0589 nM
[2]; [9]
  EC50: 0.912 nM
[3]
  EC50: 0.676 nM
[6]
  Ki: 0.0525 nM

## [40kDa-PEG]-Apelin-36: N-terminal PEGylated (40kDa) apelin-36
[2]
  cAMP Assay Fold change: 2 fold
  cAMP Assay RE (relative effectiveness): 1.20
[2]; [7]
  cAMP Assay ΔlogR: 0.08 ± 0.40
[3]
  β-Arrestin Assay Fold change: 3 fold
  β-Arrestin Assay RE (relative effectiveness): 0.26
  β-Arrestin Assay ΔlogR: −0.59 ± 0.16
[4]
  cAMP vs β-arrestin Assay Bias factor: 5
  cAMP vs β-arrestin Assay ΔΔlogR ± SEM: 0.67 ± 0.43

## [40kDa-PEG]-Apelin-36: N-terminal PEGylated (40kDa) apelin-36 (LVQPRGSRNGPGPWQGGRRKFRRQRPRLSHKGPMPF)
[2]; CHO-K1 cells expressing human apelin receptor, 15 μM forskolin, 30 min, 37 °C, mean ± SEM, n = 3-4 independent experiments, SEM
  cAMP Assay pD2±SEM: 8.69 ± 0.22
[3]
  β-Arrestin Assay pD2±SEM: 8.71 ± 0.15
